From patent publication US20100099773A1, “INCLUSION COMPLEX OF S[…] BETA-CYCLODEXTRIN” (priority 2006, published 2010) come the findings set out here.

Holding throughout (type): physicochemical
Data set [1] is described as follows: Temperature & humidity stability, impurities by HPLC. The following applies: for Content of impurities, 60° C., 75%: stored at 60° C. 75% for 2 weeks; for Content of impurities, 60° C., 93%: stored at 60° C. 93% for 2 weeks; for Content of impurities, 70° C., 75%: stored at 70° C. 75% for 2 weeks. The protocol: Temperature & Humidity Stability
Sibutramine free base, sibutramine hydrochloride monohydrate and sibutramine inclusion complex (Examples 1 and 2) were compared in terms of temperature and humidity stability.
Specifically, each compound was stored under the condition selected from the group consisting of 60° C. 75%, 60° C. 93% and 70° C. 75% for 2 weeks. The content impurities was measured with high performance liquid chromatography (HPLC).

A short description of data set [2]: Solution stability (pH 5.2) at high temperature, impurities by HPLC. The following applies: solution 1 mg/mL; for Total impurities, 4th day: 4 days; for Total impurities, 7th day: 7 days; for Total impurities, 14th day: 14 days. The protocol:
Solution Stability (pH 5.2)
Sibutramine free base, sibutramine hydrochloride monohydrate and sibutramine inclusion complex (Examples 1 and 2) were compared in terms of solution stability at high temperature.
Specifically, each compound was dissolved into the concentration of 1 mg/mL and pH 5.2, and the solution was moved to a 20 mL vial. Solution stability test was conducted at 60° C. and 70° C., respectively, by measuring the content of impurities with high performance liquid chromatography (HPLC) after the storage for 4, 7 and 14 days.

Data set [3] is described as follows: Photo-stability after UV-irradiation, impurities by HPLC. The following applies: for Content of impurities, UV: after UV-irradiation for 120 hours (total radiation dosage: 200 watt); for Content of impurities, Initial: before UV-irradiation. The procedure: Sibutramine free base, sibutramine hydrochloride monohydrate and sibutramine inclusion complex (Examples 1 and 2) were compared in terms of photo-stability.
After UV-irradiation for 120 hours (total radiation dosage: 200 watt), the content of impurities was measured with high performance liquid chromatography (HPLC).

Take `CC(C)CC(N(C)C)C1(c2ccc(Cl)cc2)CCC1` (centres unmarked) [Sibutramine free base, N,N-dimethyl-1-[1-(4-chlorophenyl)-cyclobutyl]-3-methylbutylamine]: in data set [1] (comparison of Table 3), the “Temperature and humidity stability, in words” value is recorded as “most unstable”. Also, in data set [1], the “Content of impurities, Initial” value is reported as 0.00; the “Content of impurities, 60° C., 75%” value turned out to be 5.65; the “Content of impurities, 60° C., 93%” value amounted to 6.09; the “Content of impurities, 70° C., 75%” value stood at 8.27. For the same compound, in data set [2] (pH 5.2, 60 C.), the “Total impurities, 4th day” value turned out to be 7.59%; the “Total impurities, 7th day” value amounted to 13.77%; the “Total impurities, 14th day” value was 17.16%; the “Total impurities, Initial” value is recorded as 0.00%. Further, in data set [2] (pH 5.2, 70 C.), the “Total impurities, 4th day” value is 10.04%; the “Total impurities, 7th day” value was 17.05%; the “Total impurities, 14th day” value was found to be 20.52%; the “Total impurities, Initial” value was 0.00%. In data set [3], the “Content of impurities, UV” value stood at 0.33 and the “Content of impurities, Initial” value is reported as 0.00.
With `CC(C)CC(N(C)C)C1(c2ccc(Cl)cc2)CCC1.Cl` (centres unmarked) [Sibutramine hydrochloride monohydrate], in data set [1], the “Content of impurities, Initial” value was found to be 0.00; the “Content of impurities, 60° C., 75%” value turned out to be 0.06; the “Content of impurities, 60° C., 93%” value is given as 0.07; the “Content of impurities, 70° C., 75%” value worked out at 0.13. Moreover, in data set [2] (pH 5.2, 60 C.), the “Total impurities, 4th day” value came out at 0.02%; the “Total impurities, 7th day” value is listed as 0.02%; the “Total impurities, 14th day” value is listed as 0.09%; the “Total impurities, Initial” value came to 0.00%. Besides, in data set [2] (pH 5.2, 70 C.), the “Total impurities, 4th day” value stood at 1.56%; the “Total impurities, 7th day” value worked out at 2.09%; the “Total impurities, 14th day” value stood at 4.49%; the “Total impurities, Initial” value was 0.00%. In data set [3], the “Content of impurities, UV” value was found to be 0.11 and the “Content of impurities, Initial” value was 0.06.
